These results are taken from US20070015661A1, “Herbicide/safener combination” (Bayer CropScience GmbH, priority 2005, published 2007).

The subject of data set [1] is Sinapis alba, Chrysanthemum segetum, Avena sativa, Stellaria media, Echinochloa crus-galli, Lolium multiflorum, Setaria viridis, Abutilon theophrasti …. Description: Pre-emergence action against weeds (greenhouse pot test, optical scoring). It is filed as in vivo, monocotyledonous and dicotyledonous weed plants. Conditions: herbicide/safener combination, above all with safeners II-1, II-9, III-1, b-11, b-14, IX-A3; pre-emergence method; 500 g or less of herbicide (A) per hectare; 3 to 4 weeks. From the text: Seeds or rhizome pieces of monocotyledonous and dicotyledonous weed plants were placed in sandy loam soil in cardboard pots and covered with soil. The active compounds (A) and (B), formulated in the form of wettable powders or emulsion concentrates, were then applied to the surface of the covering soil in various dosages as aqueous suspensions or emulsions using a water application rate of 300 to 800 l/ha (converted).
After the treatment, the pots were placed in a greenhouse and kept under good growth conditions for the weeds. Optical scoring of the damage to the plants or emerged plants was carried out after emergence of the test plants after a trial period of 3 to 4 weeks, in comparison to untreated controls. As shown by the results, the tested herbicide/safener combinations have good herbicidal pre-emergence activity against a broad spectrum of weed grasses and broad-leaved weeds.

The subject of data set [2] is Sinapis alba, Echinochloa crus-galli, Lolium multiflorum, Chrysanthemum segetum, Setaria viridis, Abutilon theophrasti, Amaranthus retroflexus, Panicum …. The data set can be described thus: Post-emergence action against weeds (greenhouse pot test, visual scoring). It is filed as in vivo, monocotyledonous and dicotyledonous weeds. Conditions: herbicide/safener combination, above all with safeners II-1, II-9, III-1, b-11, b-14, IX-A3; post-emergence method, three-leaf stage; 500 g or less of herbicide (A) per hectare; three to four weeks. The method, then: Seeds or rhizome pieces of monocotyledonous and dicotyledonous weeds were placed into sandy loam soil in plastic pots, covered with soil and grown in a greenhouse under good growth conditions. Three weeks after sowing, the test plants were treated at the three-leaf stage. The compounds according to the invention, formulated as wettable powders or as emulsion concentrates, were sprayed onto the green parts of the plants at various dosages using a water application rate of 300 to 800 l/ha (converted). The test plants were stood in the greenhouse under optimum growth conditions for about three to four weeks, and the action of the preparations was then scored visually in comparison to untreated controls. Post-emergence, too, the herbicide/safener combinations according to the invention have good herbicidal activity against a broad spectrum of economically important weed grasses and broad-leaved weeds.

Data set [3] deals with cotton, oilseed rape, sugar beet and Gramineae crops such as barley, wheat, rye, millet, corn or rice. The data set can be described thus: Compatibility with crop plants (greenhouse, visual scoring). Format: in vivo. The settings on record: herbicide/safener combination, above all with safeners II-1, II-9, III-1, b-11, b-14, IX-A3; pre-emergence method or post-emergence method; four to five weeks after application. From the text: In further greenhouse trials, seeds of a relatively large number of crop plants and weeds were placed into sandy loam soil and covered with soil. Some of the pots were immediately treated as described in Section 1, the others were placed in a greenhouse until the plants had developed two to three true leaves and were then sprayed with various dosages of the herbicide/safener combinations according to the invention, as described in Section 2.

For the molecule `CC1(C)CC(S(=O)(=O)C(Cl)c2ccccc2)=NO1` (stereo not drawn) [I-1.1], in data set [1], the “herbicidal activity against harmful plants (optical scoring of damage vs untreated controls)” value is on record as “very good herbicidal activity”. The “herbicidal activity against harmful plants (visual scoring vs untreated controls)” value in data set [2] is reported as “very good herbicidal activity”. Also, in data set [3], the “damage to crop plants (visual scoring)” value was “did not cause any damage”.
Take `CC1(C)CC(S(=O)(=O)C(Cl)c2cc(F)ccc2F)=NO1` (stereo not drawn) [I-2.1]: in data set [1], the “herbicidal activity against harmful plants (optical scoring of damage vs untreated controls)” value was “very good herbicidal activity”. Also, the “herbicidal activity against harmful plants (visual scoring vs untreated controls)” value in data set [2] is given as “very good herbicidal activity”. The “damage to crop plants (visual scoring)” value in data set [3] was “did not cause any damage”.
Turning to `CCC1(C)CC(S(=O)(=O)C(Cl)c2cc(F)ccc2F)=NO1` (stereo not drawn) [I-2.2], the “herbicidal activity against harmful plants (optical scoring of damage vs untreated controls)” value in data set [1] was “very good herbicidal activity”. Moreover, the “herbicidal activity against harmful plants (visual scoring vs untreated controls)” value in data set [2] was “very good herbicidal activity”. Besides, in data set [3], the “damage to crop plants (visual scoring)” value is given as “did not cause any damage”.
On to `CC1(C)CC(S(=O)(=O)C(Cl)c2c(F)cccc2F)=NO1` (stereo not drawn) [I-3.1], for which the “herbicidal activity against harmful plants (optical scoring of damage vs untreated controls)” value in data set [1] is recorded as “very good herbicidal activity”. The “herbicidal activity against harmful plants (visual scoring vs untreated controls)” value in data set [2] was “very good herbicidal activity”. The “damage to crop plants (visual scoring)” value in data set [3] was “did not cause any damage”.
For `CCC1(C)CC(S(=O)(=O)C(Cl)c2c(F)cccc2F)=NO1` (stereo not drawn) [I-3.2], the “herbicidal activity against harmful plants (optical scoring of damage vs untreated controls)” value in data set [1] was “very good herbicidal activity”. Besides, the “herbicidal activity against harmful plants (visual scoring vs untreated controls)” value in data set [2] is listed as “very good herbicidal activity”. For the same molecule, the “damage to crop plants (visual scoring)” value in data set [3] is listed as “did not cause any damage”.
As to `CC1(C)CC(S(=O)(=O)C(Cl)c2cc(C(F)(F)F)ccc2F)=NO1` (stereo not drawn) [I-4.1], the “herbicidal activity against harmful plants (optical scoring of damage vs untreated controls)” value in data set [1] was “very good herbicidal activity”. The “herbicidal activity against harmful plants (visual scoring vs untreated controls)” value in data set [2] is “very good herbicidal activity”. Moreover, the “damage to crop plants (visual scoring)” value in data set [3] is “did not cause any damage”.
As for `CC1(C)CC(S(=O)(=O)C(Cl)c2c(F)cccc2Cl)=NO1` (stereo not drawn) [I-5.1], in data set [1], the “herbicidal activity against harmful plants (optical scoring of damage vs untreated controls)” value is “very good herbicidal activity”. Moreover, the “herbicidal activity against harmful plants (visual scoring vs untreated controls)” value in data set [2] is recorded as “very good herbicidal activity”. Moreover, the “damage to crop plants (visual scoring)” value in data set [3] was “did not cause any damage”.
As to `CC1(C)CC(S(=O)(=O)C(Cl)c2ccccc2Cl)=NO1` (stereo not drawn) [I-6.1], the “herbicidal activity against harmful plants (optical scoring of damage vs untreated controls)” value in data set [1] was “very good herbicidal activity”. The “herbicidal activity against harmful plants (visual scoring vs untreated controls)” value in data set [2] was “very good herbicidal activity”. In data set [3], the “damage to crop plants (visual scoring)” value is reported as “did not cause any damage”.
With `CC1(C)CC(S(=O)(=O)C(Cl)c2ccccc2OC(F)(F)F)=NO1` (stereo not drawn) [I-10.1], in data set [1], the “herbicidal activity against harmful plants (optical scoring of damage vs untreated controls)” value was “very good herbicidal activity”. Besides, the “herbicidal activity against harmful plants (visual scoring vs untreated controls)” value in data set [2] was “very good herbicidal activity”. The “damage to crop plants (visual scoring)” value in data set [3] is listed as “did not cause any damage”.
Take `CCC1(C)CC(S(=O)(=O)C(Cl)c2cc(C(F)(F)F)ccc2Cl)=NO1` (stereo not drawn) [I-98.2]: the “herbicidal activity against harmful plants (optical scoring of damage vs untreated controls)” value in data set [1] is listed as “very good herbicidal activity”. In data set [2], the “herbicidal activity against harmful plants (visual scoring vs untreated controls)” value is “very good herbicidal activity”. In data set [3], the “damage to crop plants (visual scoring)” value is on record as “did not cause any damage”.
Take `CC1(C)CC(S(=O)(=O)C(Cl)c2c(Cl)cccc2Cl)=NO1` (stereo not drawn) [I-109.1]: in data set [1], the “herbicidal activity against harmful plants (optical scoring of damage vs untreated controls)” value is “very good herbicidal activity”. Further, the “herbicidal activity against harmful plants (visual scoring vs untreated controls)” value in data set [2] is “very good herbicidal activity”. For the same molecule, the “damage to crop plants (visual scoring)” value in data set [3] is given as “did not cause any damage”.
For `CC1(C)CC(S(=O)(=O)C(Cl)c2c(F)cccc2C(F)(F)F)=NO1` (stereo not drawn) [I-117.1], the “herbicidal activity against harmful plants (optical scoring of damage vs untreated controls)” value in data set [1] is listed as “very good herbicidal activity”. The “herbicidal activity against harmful plants (visual scoring vs untreated controls)” value in data set [2] is “very good herbicidal activity”. Further, the “damage to crop plants (visual scoring)” value in data set [3] is reported as “did not cause any damage”.
Consider `CC1(C)CC(S(=O)(=O)C(Cl)c2cc(F)cc(F)c2F)=NO1` (stereo not drawn) [I-129.1], for which the “herbicidal activity against harmful plants (optical scoring of damage vs untreated controls)” value in data set [1] is “very good herbicidal activity”. The “herbicidal activity against harmful plants (visual scoring vs untreated controls)” value in data set [2] is given as “very good herbicidal activity”. The “damage to crop plants (visual scoring)” value in data set [3] was “did not cause any damage”.
With `Cn1nc(C(F)(F)F)c(C(Cl)S(=O)(=O)C2=NOC(C)(C)C2)c1OC(F)F` (stereo not drawn) [I-206.1], in data set [1], the “herbicidal activity against harmful plants (optical scoring of damage vs untreated controls)” value was “very good herbicidal activity”. For the same molecule, in data set [2], the “herbicidal activity against harmful plants (visual scoring vs untreated controls)” value is on record as “very good herbicidal activity”. The “damage to crop plants (visual scoring)” value in data set [3] is listed as “did not cause any damage”.
As for `Cn1nc(C(F)(F)F)c(C(Cl)S(=O)(=O)C2=NOC(C)(C)C2)c1Cl` (stereo not drawn) [I-216.1], in data set [1], the “herbicidal activity against harmful plants (optical scoring of damage vs untreated controls)” value is listed as “very good herbicidal activity”. The “herbicidal activity against harmful plants (visual scoring vs untreated controls)” value in data set [2] is on record as “very good herbicidal activity”. For the same molecule, the “damage to crop plants (visual scoring)” value in data set [3] is “did not cause any damage”.
As to `CCC1(C)CC(S(=O)(=O)C(Cl)c2c(C(F)(F)F)nn(C)c2Cl)=NO1` (stereo not drawn) [I-216.2], in data set [1], the “herbicidal activity against harmful plants (optical scoring of damage vs untreated controls)” value is “very good herbicidal activity”. For the same molecule, the “herbicidal activity against harmful plants (visual scoring vs untreated controls)” value in data set [2] was “very good herbicidal activity”. Further, the “damage to crop plants (visual scoring)” value in data set [3] is listed as “did not cause any damage”.
In the case of `CC1(C)CC(S(=O)(=O)C(F)c2cc(F)ccc2F)=NO1` (stereo not drawn) [I-249.1], the “herbicidal activity against harmful plants (optical scoring of damage vs untreated controls)” value in data set [1] is recorded as “very good herbicidal activity”. The “herbicidal activity against harmful plants (visual scoring vs untreated controls)” value in data set [2] is on record as “very good herbicidal activity”. Besides, the “damage to crop plants (visual scoring)” value in data set [3] is “did not cause any damage”.
Turning to `CC1(C)CC(S(=O)(=O)C(F)c2c(F)cccc2F)=NO1` (stereo not drawn) [I-250.1], in data set [1], the “herbicidal activity against harmful plants (optical scoring of damage vs untreated controls)” value was “very good herbicidal activity”. The “herbicidal activity against harmful plants (visual scoring vs untreated controls)” value in data set [2] is “very good herbicidal activity”. Further, the “damage to crop plants (visual scoring)” value in data set [3] is on record as “did not cause any damage”.
In the case of `Cn1nc(C(F)(F)F)c(C(F)S(=O)(=O)C2=NOC(C)(C)C2)c1OC(F)F` (stereo not drawn) [I-260.1], the “herbicidal activity against harmful plants (optical scoring of damage vs untreated controls)” value in data set [1] is “very good herbicidal activity”. Further, in data set [2], the “herbicidal activity against harmful plants (visual scoring vs untreated controls)” value is “very good herbicidal activity”. In addition, the “damage to crop plants (visual scoring)” value in data set [3] is recorded as “did not cause any damage”.
`Cn1nc(C(F)(F)F)c(C(Br)S(=O)(=O)C2=NOC(C)(C)C2)c1OC(F)F` (stereo not drawn) [I-275.1]: the “herbicidal activity against harmful plants (optical scoring of damage vs untreated controls)” value in data set [1] is reported as “very good herbicidal activity”. The “herbicidal activity against harmful plants (visual scoring vs untreated controls)” value in data set [2] is listed as “very good herbicidal activity”. The “damage to crop plants (visual scoring)” value in data set [3] is given as “did not cause any damage”.
Take `Cn1nc(C(F)(F)F)c(C(Cl)[S+]([O-])C2=NOC(C)(C)C2)c1OC(F)F` (stereo not drawn) [I-289.1]: the “herbicidal activity against harmful plants (optical scoring of damage vs untreated controls)” value in data set [1] is recorded as “very good herbicidal activity”. Further, the “herbicidal activity against harmful plants (visual scoring vs untreated controls)” value in data set [2] is given as “very good herbicidal activity”. In addition, the “damage to crop plants (visual scoring)” value in data set [3] was “did not cause any damage”.
